Measurements reported in ChEMBL document CHEMBL4507319 (2021).

Key:
[1] = target: T1, Myotonin-protein kinase (Homo sapiens) (UniProt Q09013); assay: DMPK(h) Eurofins kinase panel; details: Compound concentration 1.0 uM
T1 sequence (whole entry): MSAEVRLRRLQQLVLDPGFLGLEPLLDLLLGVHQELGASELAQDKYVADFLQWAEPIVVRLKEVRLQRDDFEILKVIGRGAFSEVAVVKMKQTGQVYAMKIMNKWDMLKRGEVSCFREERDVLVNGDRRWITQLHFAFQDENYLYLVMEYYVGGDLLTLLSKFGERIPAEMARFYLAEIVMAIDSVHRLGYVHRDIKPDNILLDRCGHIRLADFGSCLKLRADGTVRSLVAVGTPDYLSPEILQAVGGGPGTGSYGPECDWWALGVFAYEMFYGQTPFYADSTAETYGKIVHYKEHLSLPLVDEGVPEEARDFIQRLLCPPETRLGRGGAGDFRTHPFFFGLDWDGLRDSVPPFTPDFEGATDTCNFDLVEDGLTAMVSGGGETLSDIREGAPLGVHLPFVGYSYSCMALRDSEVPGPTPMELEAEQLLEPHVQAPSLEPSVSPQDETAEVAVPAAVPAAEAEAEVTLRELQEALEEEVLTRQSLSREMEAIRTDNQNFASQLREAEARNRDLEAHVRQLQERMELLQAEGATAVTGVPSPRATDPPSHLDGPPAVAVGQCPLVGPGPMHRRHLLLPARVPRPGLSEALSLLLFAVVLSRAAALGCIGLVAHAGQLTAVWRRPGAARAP

[2] = target: T2, Ephrin type-B receptor 1 (Homo sapiens) (UniProt P54762); assay: EphB1(h) Eurofins kinase panel; details: Compound concentration 1.0 uM
T2 sequence (whole entry): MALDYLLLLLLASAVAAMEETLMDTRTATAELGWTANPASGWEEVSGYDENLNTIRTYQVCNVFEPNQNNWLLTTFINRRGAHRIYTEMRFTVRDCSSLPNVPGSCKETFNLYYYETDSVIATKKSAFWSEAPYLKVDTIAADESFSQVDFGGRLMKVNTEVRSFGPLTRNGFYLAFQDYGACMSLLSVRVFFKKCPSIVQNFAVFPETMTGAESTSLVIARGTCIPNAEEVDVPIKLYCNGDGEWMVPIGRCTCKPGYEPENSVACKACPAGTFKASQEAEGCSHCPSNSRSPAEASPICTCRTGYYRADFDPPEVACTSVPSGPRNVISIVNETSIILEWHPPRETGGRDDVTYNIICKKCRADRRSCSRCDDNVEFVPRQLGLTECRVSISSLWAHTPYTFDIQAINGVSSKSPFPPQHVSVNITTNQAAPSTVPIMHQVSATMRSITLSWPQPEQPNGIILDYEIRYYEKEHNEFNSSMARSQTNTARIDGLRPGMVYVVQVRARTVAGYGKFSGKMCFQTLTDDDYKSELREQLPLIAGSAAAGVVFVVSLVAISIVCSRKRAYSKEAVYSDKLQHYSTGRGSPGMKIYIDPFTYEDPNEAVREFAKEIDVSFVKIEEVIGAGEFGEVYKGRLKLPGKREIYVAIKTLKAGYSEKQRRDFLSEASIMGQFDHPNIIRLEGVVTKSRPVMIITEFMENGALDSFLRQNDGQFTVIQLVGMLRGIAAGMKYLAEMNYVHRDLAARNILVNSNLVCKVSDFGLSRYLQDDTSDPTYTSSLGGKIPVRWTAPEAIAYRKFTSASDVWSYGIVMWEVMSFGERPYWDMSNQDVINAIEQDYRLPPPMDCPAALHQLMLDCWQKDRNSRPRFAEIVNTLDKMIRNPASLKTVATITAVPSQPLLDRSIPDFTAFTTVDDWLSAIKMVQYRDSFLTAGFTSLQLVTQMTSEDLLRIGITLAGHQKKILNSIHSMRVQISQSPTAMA

Raji = assay: RAJI cell line Proliferation assay; format: functional, Homo sapiens; details: time 3 day
[3] = target: Vascular endothelial growth factor receptor 2 (Homo sapiens) (UniProt P35968); assay: KDR(h) Eurofins kinase panel; details: Compound concentration 1.0 uM
[4] = target: T3, Myosin-IIIb (Homo sapiens) (UniProt Q8WXR4); assay: MYO3B(h) Eurofins kinase panel; details: Compound concentration 1.0 uM
T3 sequence (whole entry): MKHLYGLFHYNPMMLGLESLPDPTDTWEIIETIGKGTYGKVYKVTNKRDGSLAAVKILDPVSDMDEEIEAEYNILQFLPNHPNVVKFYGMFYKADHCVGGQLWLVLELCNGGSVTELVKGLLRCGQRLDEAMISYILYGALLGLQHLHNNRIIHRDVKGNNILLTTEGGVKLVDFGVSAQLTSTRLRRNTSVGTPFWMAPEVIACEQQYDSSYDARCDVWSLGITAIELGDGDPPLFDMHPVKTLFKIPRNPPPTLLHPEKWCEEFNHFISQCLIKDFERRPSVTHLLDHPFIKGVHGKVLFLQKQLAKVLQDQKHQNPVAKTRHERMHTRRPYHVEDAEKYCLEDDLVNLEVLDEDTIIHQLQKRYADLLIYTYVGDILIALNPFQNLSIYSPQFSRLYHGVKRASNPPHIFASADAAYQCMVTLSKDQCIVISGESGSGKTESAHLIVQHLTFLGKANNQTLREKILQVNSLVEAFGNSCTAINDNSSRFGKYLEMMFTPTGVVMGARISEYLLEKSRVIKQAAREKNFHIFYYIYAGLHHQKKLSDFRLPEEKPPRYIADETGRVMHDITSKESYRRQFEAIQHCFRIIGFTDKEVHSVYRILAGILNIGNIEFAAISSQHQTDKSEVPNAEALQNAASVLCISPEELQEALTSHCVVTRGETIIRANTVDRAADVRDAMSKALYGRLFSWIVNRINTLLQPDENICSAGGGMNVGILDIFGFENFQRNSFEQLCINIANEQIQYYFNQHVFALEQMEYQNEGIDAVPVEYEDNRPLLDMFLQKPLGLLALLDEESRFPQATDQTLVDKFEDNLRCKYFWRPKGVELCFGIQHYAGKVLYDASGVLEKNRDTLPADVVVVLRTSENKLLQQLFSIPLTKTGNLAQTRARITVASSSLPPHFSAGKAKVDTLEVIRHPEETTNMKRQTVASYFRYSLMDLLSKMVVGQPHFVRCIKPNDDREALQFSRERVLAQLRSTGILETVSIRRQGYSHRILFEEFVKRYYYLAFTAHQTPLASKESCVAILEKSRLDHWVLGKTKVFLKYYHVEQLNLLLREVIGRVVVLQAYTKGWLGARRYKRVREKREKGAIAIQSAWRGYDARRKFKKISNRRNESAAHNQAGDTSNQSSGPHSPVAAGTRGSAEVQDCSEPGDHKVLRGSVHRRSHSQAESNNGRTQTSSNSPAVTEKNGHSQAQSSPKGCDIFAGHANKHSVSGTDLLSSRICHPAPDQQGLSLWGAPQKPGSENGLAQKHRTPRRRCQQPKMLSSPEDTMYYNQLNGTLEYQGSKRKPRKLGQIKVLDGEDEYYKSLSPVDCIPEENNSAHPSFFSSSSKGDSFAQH

[5] = target: Eukaryotic elongation factor 2 kinase (Homo sapiens) (UniProt O00418); assay: eEF-2K(h) Eurofins kinase panel; details: Compound concentration 1.0 uM
Sequence of Eukaryotic elongation factor 2 kinase (Homo sapiens) (O00418 whole entry): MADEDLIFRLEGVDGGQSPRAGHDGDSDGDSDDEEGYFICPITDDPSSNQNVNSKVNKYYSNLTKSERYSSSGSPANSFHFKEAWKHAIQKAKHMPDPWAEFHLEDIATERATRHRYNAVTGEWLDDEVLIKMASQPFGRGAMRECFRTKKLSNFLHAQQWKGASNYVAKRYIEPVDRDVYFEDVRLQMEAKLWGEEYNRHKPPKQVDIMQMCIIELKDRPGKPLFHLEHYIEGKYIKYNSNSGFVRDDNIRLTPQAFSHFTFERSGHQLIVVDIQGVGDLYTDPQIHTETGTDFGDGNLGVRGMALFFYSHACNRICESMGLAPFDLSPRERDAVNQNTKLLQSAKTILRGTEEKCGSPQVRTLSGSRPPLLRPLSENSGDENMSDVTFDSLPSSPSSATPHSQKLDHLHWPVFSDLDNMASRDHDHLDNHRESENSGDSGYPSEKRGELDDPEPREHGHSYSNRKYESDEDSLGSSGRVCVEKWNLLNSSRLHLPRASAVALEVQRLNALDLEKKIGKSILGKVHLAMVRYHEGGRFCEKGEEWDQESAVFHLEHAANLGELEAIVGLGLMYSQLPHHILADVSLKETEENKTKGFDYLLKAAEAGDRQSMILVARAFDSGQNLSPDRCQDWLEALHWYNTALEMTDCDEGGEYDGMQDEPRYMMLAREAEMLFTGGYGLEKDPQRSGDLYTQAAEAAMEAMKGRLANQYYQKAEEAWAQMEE

Sequence of Vascular endothelial growth factor receptor 2 (Homo sapiens) (P35968 whole entry): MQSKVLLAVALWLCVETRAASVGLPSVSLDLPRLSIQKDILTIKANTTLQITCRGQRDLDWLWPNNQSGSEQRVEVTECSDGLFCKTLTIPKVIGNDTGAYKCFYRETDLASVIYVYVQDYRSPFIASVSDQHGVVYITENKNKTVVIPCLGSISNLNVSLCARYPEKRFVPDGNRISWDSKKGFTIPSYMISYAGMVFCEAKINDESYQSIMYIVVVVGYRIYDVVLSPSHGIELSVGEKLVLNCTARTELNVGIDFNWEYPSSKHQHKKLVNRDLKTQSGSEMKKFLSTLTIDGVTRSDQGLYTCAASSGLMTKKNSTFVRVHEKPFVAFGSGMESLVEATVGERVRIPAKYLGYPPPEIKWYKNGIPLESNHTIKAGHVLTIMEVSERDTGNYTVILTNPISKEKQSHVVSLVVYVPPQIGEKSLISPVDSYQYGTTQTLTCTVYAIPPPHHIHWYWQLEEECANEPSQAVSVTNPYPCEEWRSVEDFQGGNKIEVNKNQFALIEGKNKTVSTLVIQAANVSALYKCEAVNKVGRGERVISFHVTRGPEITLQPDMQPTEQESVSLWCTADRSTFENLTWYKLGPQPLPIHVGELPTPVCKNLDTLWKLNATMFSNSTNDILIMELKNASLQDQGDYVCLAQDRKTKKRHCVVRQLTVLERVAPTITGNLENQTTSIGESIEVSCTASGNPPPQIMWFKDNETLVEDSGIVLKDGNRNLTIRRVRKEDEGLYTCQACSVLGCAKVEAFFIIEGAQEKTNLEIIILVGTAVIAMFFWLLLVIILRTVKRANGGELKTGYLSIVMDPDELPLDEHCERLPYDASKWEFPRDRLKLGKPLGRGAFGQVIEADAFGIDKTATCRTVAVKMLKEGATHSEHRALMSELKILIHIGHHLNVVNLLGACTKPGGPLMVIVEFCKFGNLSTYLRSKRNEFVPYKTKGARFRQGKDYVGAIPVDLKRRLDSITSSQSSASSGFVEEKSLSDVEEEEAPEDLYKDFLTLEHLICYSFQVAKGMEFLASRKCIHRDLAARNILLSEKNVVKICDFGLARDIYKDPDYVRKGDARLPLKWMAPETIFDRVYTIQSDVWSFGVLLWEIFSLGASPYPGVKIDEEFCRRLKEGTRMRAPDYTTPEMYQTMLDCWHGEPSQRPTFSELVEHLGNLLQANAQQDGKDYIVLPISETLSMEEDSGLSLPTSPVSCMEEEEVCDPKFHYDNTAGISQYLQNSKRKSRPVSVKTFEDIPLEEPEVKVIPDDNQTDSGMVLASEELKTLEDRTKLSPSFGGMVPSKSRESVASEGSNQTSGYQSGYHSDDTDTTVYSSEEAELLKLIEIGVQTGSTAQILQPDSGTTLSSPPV

## CCc1ccccc1C(=O)Nc1n[nH]c2c(C)c(F)c(C3C(C#N)=C(C)N(C)C(C)=C3C#N)cc12 [BAY-3827]
[1]
  % residual kinase activity: 91%
[2]
  % residual kinase activity: 96%
Raji
  Cell Proliferation IC50: >33 µM
[3]
  % residual kinase activity: 90%
[4]
  % residual kinase activity: 24%
[5]
  % residual kinase activity: 141%
